Experimental data reported in PMC5011961, “In vitro antimicrobial activities of animal-used quinoxaline 1,4-di-N-oxides against mycobacteria, mycoplasma and fungi” (BMC Veterinary Research, 2016).
Converted amounts (≈) assume the structure as drawn. Like-named read-outs stand apart in the source and are kept apart here.

Legend:
Candida albicans = experiment: Antifungal assay, macrobroth 2-fold serial dilution MIC
Microsporum canis = experiment: as above
Aspergillus fumigatus = experiment: as above
Candida parapsilosis = experiment: as above; conditions: Lodderomyces parapsilosis
Cryptococcus neoformans = experiment: as above
Candida tropicalis = experiment: as above
Epidermophyton floccosum = experiment: as above
Trichophyton rubrum = experiment: as above
M. tuberculosis complex = experiment: Combination susceptibility assay (checkerboard method), overall statements; type: cell-based; conditions: combined with rifampicin
M. bovis ATCC 19210 = experiment: microbe, parasite or virus in culture; type: cell-based, Mycobacterium bovis; conditions: Mycobacterium tuberculosis variant bovis, ATCC19210
[1] = test system: M. tuberculosis H37Rv ATCC 27294; experiment: Microdilution alamar blue assay (MABA); type: cell-based, Mycobacterium tuberculosis; conditions: Mycobacterium tuberculosis, read-out: MIC
DF-1 cells = experiment: Cytotoxicity assay (MTT); conditions: for TC50: DF-1, 72 h, MTT, mean ± SD, n = 4; for MNTC: DF-1, maximum non-cytotoxic concentration (90 % cell viability)
IBDV = experiment: Antiviral assay (CPE/MTT; adsorption inhibition, infection inhibition, virucidal); type: cell-based, infectious bursal disease virus; design: key to IC50: “--” represent not detected owing to the low inhibition ratio; conditions: IBDV, mean±SD of four experiments
PK-15 cells = experiment: Cytotoxicity assay (MTT); conditions: for TC50: PK-15, 72 h, MTT, mean ± SD, n = 4; for MNTC: PK-15, maximum non-cytotoxic concentration (90 % cell viability)
M. gallisepticum = experiment: Antimycoplasma assay, MIC in microtiter plates; conditions: Mycoplasmoides gallisepticum
Description: (§1) Briefly, 96-well microtiter Sensititre plates containing stabilized and freeze-dried antimicrobials were used. Three wells on each plate were set as antimicrobial free growth control. Freshly thawed mycoplasma isolates with known titers were diluted in liquid medium until the number of organisms reached 10^4 color changing units/mL. 50 μL of the diluted culture was transferred into each well of the Sensititre plates. […] The plates were sealed using an adhesive foil and incubated at 36 °C for 14 days. The growth of M. hyopneumoniae was observed daily when the color of the medium changed from red to yellow (phenol red indicator), and the initial and final MICs were recorded.

Mycoplasma gallisepticum = experiment: Combination susceptibility assay (checkerboard method); type: cell-based; conditions: combined with tetracyclines (tetracycline and doxycycline), M. gallisepticum
PRRSV = experiment: Antiviral assay (CPE/MTT; adsorption inhibition, infection inhibition, virucidal); type: cell-based, porcine reproductive and respiratory syndrome virus; design: key to IC50: “--”represent not detected owing to the low inhibition ratio; conditions: PRRSV, mean±SD of four experiments
[2] = test system: M. tuberculosis H37Ra ATCC 25177; experiment: Microdilution alamar blue assay (MABA)
Description: Briefly, each of the above Mycobacterium strains was cultured at 37 °C in Middlebrook 7H9 broth supplemented with 0.2 % glycerol and 10 % Oleic Acid-Albumin-Dextrose-Catalase (Sigma, St Louis, MO, USA) until logarithmic growth was reached. About 6 × 10^6 CFU/mL inoculum of Mycobacterium strain was then added to the two fold serially diluted drug samples. The final concentration of DMSO in all assays was 2.5 % or less and this dilution also served as solvent control. The samples were assayed in triplicate. All tests were carried out in sterile flat bottom 96-well microplates. Each microplate was incubated for 5 days at 37 °C in a sealed plastic CO2-permeable bag. After 7 days of incubation, 32 μL of a mixture of freshly prepared Alamar Blue solution and 20 % sterile Tween-80 at 1:1 (v/v) were added to the growth-control well. The microplates were incubated at 37 °C for 24 h. […] A well-defined pink color was interpreted as positive bacterial growth, whereas a blue color indicated an absence of growth.

M. hyopneumoniae = experiment: Antimycoplasma assay, MIC in microtiter plates; conditions: Mesomycoplasma hyopneumoniae
Description: as §1

PPV = experiment: Antiviral assay (CPE/MTT; adsorption inhibition, infection inhibition, virucidal); type: cell-based, porcine parvovirus; design: key to IC50: “--” represent not detected owing to the low inhibition ratio; conditions: PPV, mean±SD of four experiments
Marc-145 cells = experiment: Cytotoxicity assay (MTT); conditions: for TC50: Marc-145, 72 h, MTT, mean ± SD, n = 4; for MNTC: Marc-145, maximum non-cytotoxic concentration (90 % cell viability)
mycoplasma = experiment: Antimycoplasma assay, overall statements; type: cell-based; conditions: range over Mycoplasma gallisepticum and Mycoplasma hyopneumoniae strains
[3] = A. fumigatus 3.5301, deep fungi
[4] = A. fumigatus 3.5352, deep fungi
[5] = Candida tropicalis, C. tropicalis 2.2735, deep fungi
[6] = Candida tropicalis, C. tropicalis 7349, deep fungi
[7] = M. gallisepticum BG44T (10^4ccu/mL)
[8] = M. gallisepticum MG-HS (10^6ccu/mL)
[9] = M. gallisepticum PG31 (10^8 ccu/mL)

Row | SMILES | MIC (Candida albicans; C. albicans 2.4122, deep fungi) | MIC (Candida albicans; C. albicans 90028, deep fungi) | MIC (Microsporum canis) | MIC (Microsporum canis; CBS113480) | MIC (Aspergillus fumigatus; [3]) | MIC (Aspergillus fumigatus; [4]) | MIC (Candida parapsilosis) | MIC (Cryptococcus neoformans) | MIC (Candida tropicalis; [5]) | MIC (Epidermophyton floccosum) | MIC (Epidermophyton floccosum; CBS566094) | MIC (Trichophyton rubrum) | MIC (Trichophyton rubrum; ATCC4438) | MIC (M. bovis ATCC 19210) | MIC [1] | MIC (M. gallisepticum; [7]) | MIC (M. gallisepticum; [8]) | MIC (M. gallisepticum; [9]) | MIC [2] | MIC (M. hyopneumoniae) | other results
1 | C[C@@H]1[C@H](O)[C@@H](C)/C=C/C=C/C=C/C=C/C=C/C=C/C=C/[C@H](O[C@@H]2O[C@H](C)[C@@H](O)[C@H](N)[C@@H]2O)C[C@@H]2O[C@](O)(C[C@@H](O)C[C@@H](O)[C@H](O)CC[C@@H](O)C[C@@H](O)CC(=O)O[C@H]1C)C[C@H](O)[C@H]2C(=O)O [AMB, amphotericin B] | 2 µg/mL (≈ 2.16 µM) | 1 µg/mL (≈ 1.08 µM) | 1 µg/mL (≈ 1.08 µM) | 0.5 µg/mL (≈ 0.541 µM) | 0.5 µg/mL (≈ 0.541 µM) | 0.5 µg/mL (≈ 0.541 µM) | 1 µg/mL (≈ 1.08 µM) | 0.5 µg/mL (≈ 0.541 µM) | 2 µg/mL (≈ 2.16 µM) | 0.5 µg/mL (≈ 0.541 µM) | 0.5 µg/mL (≈ 0.541 µM) | 1 µg/mL (≈ 1.08 µM) | 1 µg/mL (≈ 1.08 µM) |  |  |  |  |  |  |  | MIC (Candida tropicalis; [6]): 2 µg/mL (≈ 2.16 µM)
2 | N#CCC(=O)N/N=C/c1c[n+]([O-])c2ccccc2[n+]1[O-] [CYA, cyadox] | 32 µg/mL (≈ 118 µM) | 64 µg/mL (≈ 236 µM) | 32 µg/mL (≈ 118 µM) | 16 µg/mL (≈ 59 µM) | 64 µg/mL (≈ 236 µM) | 32 µg/mL (≈ 118 µM) | 32 µg/mL (≈ 118 µM) | 16 µg/mL (≈ 59 µM) | 32 µg/mL (≈ 118 µM) | 32 µg/mL (≈ 118 µM) | 32 µg/mL (≈ 118 µM) | 32 µg/mL (≈ 118 µM) | 32 µg/mL (≈ 118 µM) | 8 µg/mL (≈ 29.5 µM) | 4 µg/mL (≈ 14.7 µM) | 32 µg/mL (≈ 118 µM) | 16 µg/mL (≈ 59 µM) | 16 µg/mL (≈ 59 µM) | 64 µg/mL (≈ 236 µM) | 16 µg/mL (≈ 59 µM) | FIC (M. tuberculosis complex): 0.75; TC50 (DF-1 cells): 17.26 ± 1.27 µg/mL (≈ 63.6 µM); MNTC (DF-1 cells): 1.0 µg/mL; IC50 (IBDV; Inactivation): --; IC50 (IBDV; Prevention): --; IC50 (IBDV; Treatment): --; TC50 (PK-15 cells): 15.31 ± 1.23 µg/mL (≈ 56.4 µM); MNTC (PK-15 cells): 1.2 µg/mL; Combined effect (Mycoplasma gallisepticum): additive (0.5 to 1, additive); IC50 (PRRSV; Inactivation): --; IC50 (PRRSV; Prevention): --; IC50 (PRRSV; Treatment): --; MIC (Candida tropicalis; [6]): 32 µg/mL (≈ 118 µM); IC50 (PPV; Inactivation): --; IC50 (PPV; Prevention): --; IC50 (PPV; Treatment): --; TC50 (Marc-145 cells): 16.92 ± 1.28 µg/mL (≈ 62.4 µM); MNTC (Marc-145 cells): 1.56 µg/mL
3 | CCN1CCN(c2cc3c(cc2F)c(=O)c(C(=O)O)cn3C2CC2)CC1 [Enrofloxacin, enrofloxacin] |  |  |  |  |  |  |  |  |  |  |  |  |  |  |  | 0.013 µg/mL (≈ 0.0362 µM) | 0.05 µg/mL (≈ 0.139 µM) | 0.025 µg/mL (≈ 0.0696 µM) |  | 0.025 µg/mL (≈ 0.0696 µM) | 
4 | NNC(=O)c1ccncc1 [Isoniazid, isoniazid] |  |  |  |  |  |  |  |  |  |  |  |  |  | 0.025 µg/mL (≈ 0.182 µM) | 0.025 µg/mL (≈ 0.182 µM) |  |  |  | 16 µg/mL (≈ 117 µM) |  | 
5 | CC(=O)N1CCN(c2ccc(OCC3COC(Cn4ccnc4)(c4ccc(Cl)cc4Cl)O3)cc2)CC1 (stereo not drawn) [KCZ, ketoconazole] | 0.5 µg/mL (≈ 0.941 µM) | 0.25 µg/mL (≈ 0.47 µM) | 0.5 µg/mL (≈ 0.941 µM) | 0.25 µg/mL (≈ 0.47 µM) | 0.25 µg/mL (≈ 0.47 µM) | 0.5 µg/mL (≈ 0.941 µM) | 0.125 µg/mL (≈ 0.235 µM) | 0.25 µg/mL (≈ 0.47 µM) |  | 0.25 µg/mL (≈ 0.47 µM) | 0.25 µg/mL (≈ 0.47 µM) | 0.5 µg/mL (≈ 0.941 µM) | 0.5 µg/mL (≈ 0.941 µM) |  |  |  |  |  |  |  | MIC (Candida tropicalis; C. tropicalis 2.2735, deep fungi): 0.5 µg/mL (≈ 0.941 µM); MIC (Candida tropicalis; Candida tropicalis): 0.5 µg/mL (≈ 0.941 µM)
6 | NC(=O)c1cnccn1 [Pyrazinamide, pyrazinamide] |  |  |  |  |  |  |  |  |  |  |  |  |  | 0.8 µg/mL (≈ 6.5 µM) | 0.8 µg/mL (≈ 6.5 µM) |  |  |  |  |  | 
7 | Cc1c(C(=O)/C=C/c2ccccc2)[n+]([O-])c2ccccc2[n+]1[O-] [QCT, quinocetone] | > 64 µg/mL | > 64 µg/mL | 16 µg/mL (≈ 52.2 µM) | 8 µg/mL (≈ 26.1 µM) | 64 µg/mL (≈ 209 µM) | 64 µg/mL (≈ 209 µM) | 64 µg/mL (≈ 209 µM) | 64 µg/mL (≈ 209 µM) | > 64 µg/mL | 32 µg/mL (≈ 104 µM) | 32 µg/mL (≈ 104 µM) | 32 µg/mL (≈ 104 µM) | 32 µg/mL (≈ 104 µM) | 4 µg/mL (≈ 13.1 µM) | 4 µg/mL (≈ 13.1 µM) | 8 µg/mL (≈ 26.1 µM) | 16 µg/mL (≈ 52.2 µM) | 16 µg/mL (≈ 52.2 µM) | 64 µg/mL (≈ 209 µM) | 16 µg/mL (≈ 52.2 µM) | FIC (M. tuberculosis complex): 0.75; TC50 (DF-1 cells): 9.89 ± 1.08 µg/mL (≈ 32.3 µM); MNTC (DF-1 cells): 0.25 µg/mL; IC50 (IBDV; Inactivation): --; IC50 (IBDV; Prevention): --; IC50 (IBDV; Treatment): --; TC50 (PK-15 cells): 2.38 ± 0.27 µg/mL (≈ 7.77 µM); MNTC (PK-15 cells): 0.2 µg/mL; Combined effect (Mycoplasma gallisepticum): additive (0.5 to 1, additive); IC50 (PRRSV; Inactivation): --; IC50 (PRRSV; Prevention): --; IC50 (PRRSV; Treatment): --; MIC (Candida tropicalis; [6]): > 64 µg/mL; MIC (mycoplasma): 8 to 16 µg/mL (≈ 26.1 to 52.2 µM); IC50 (PPV; Inactivation): --; IC50 (PPV; Prevention): --; IC50 (PPV; Treatment): --; TC50 (Marc-145 cells): 8.90 ± 1.05 µg/mL (≈ 29.1 µM); MNTC (Marc-145 cells): 0.39 µg/mL
8 | CO[C@H]1/C=C/O[C@@]2(C)Oc3c(C)c(O)c4c(O)c(c(/C=N/N5CCN(C)CC5)c(O)c4c3C2=O)NC(=O)/C(C)=C\C=C\[C@H](C)[C@H](O)[C@@H](C)[C@@H](O)[C@@H](C)[C@H](OC(C)=O)[C@@H]1C [Rifampicin, rifampicin] |  |  |  |  |  |  |  |  |  |  |  |  |  | 0.025 µg/mL (≈ 0.0304 µM) | 0.05 µg/mL (≈ 0.0608 µM) |  |  |  | 1.6 µg/mL (≈ 1.94 µM) |  | 
9 | [H]/N=C(/N)N[C@H]1[C@H](O)[C@@H](O)[C@H](O[C@@H]2O[C@@H](C)[C@](O)(C=O)[C@H]2O[C@@H]2O[C@@H](CO)[C@H](O)[C@@H](O)[C@@H]2NC)[C@@H](N/C(N)=N\[H])[C@@H]1O [Streptomycin, streptomycin] |  |  |  |  |  |  |  |  |  |  |  |  |  | 0.013 µg/mL (≈ 0.0224 µM) | 0.025 µg/mL (≈ 0.043 µM) |  |  |  |  |  | 
10 | CC[C@H]1OC(=O)C[C@@H](O)[C@H](C)[C@@H](O[C@@H]2O[C@H](C)[C@@H](O[C@H]3C[C@@](C)(O)[C@@H](O)[C@H](C)O3)[C@H](N(C)C)[C@H]2O)[C@@H](CC=O)C[C@@H](C)C(=O)/C=C/C(C)=C/[C@@H]1CO[C@@H]1O[C@H](C)[C@@H](O)[C@@H](OC)[C@H]1OC [Tylosin, tylosin] |  |  |  |  |  |  |  |  |  |  |  |  |  |  |  | 0.05 µg/mL (≈ 0.0546 µM) | 0.025 µg/mL (≈ 0.0273 µM) | 0.025 µg/mL (≈ 0.0273 µM) |  | 0.05 µg/mL (≈ 0.0546 µM) | 
